{"source": "patent US20190167724A1", "about": "“NEUROPROTECTIVE COMPOSITION, PREPARATION PROCESS THEREOF AND MEDICAL USES THEREOF” (priority 2017, published 2019)", "tested_on": "6-OHDA induced Parkinson's Disease-like Zebrafish Larvae Model", "experiment": "Anti-Parkinson's Disease efficacy test in 6-OHDA zebrafish larvae model", "assay_type": "in vivo", "settings": "soaking at 1.5 μg/mL, co-treated with 6-OHDA", "note": "Marks after values point to notes of the source that are not given here.", "data": [{"smiles": "CN1Cc2c(N)cccc2C(c2ccccc2)C1", "note": "(centres unmarked) [Nomifensine]", "values": [{"measurement": "Anti-Parkinson's Disease Efficacy (Motility Increase Rate)", "result": 40.9, "unit": "%*"}, {"measurement": "Total Distance (mm) (Mean ± SE)", "setting": "30 minutes, n = 10", "result": "2738 ± 165", "unit": "mm"}]}]}
